Assay in all cases: DTP human tumour cell line panel, 48 h
Assay [1] relates to SR.
Assay [2] has as its system HT-29.
For assay [3], the system named is ACHN.
Assay [4] relates to COLO 205.
Assay [5] deals with NCI-H226.
For assay [6], the system named is HOP-62.
The subject of assay [7] is Malme-3M.
Assay [8] concerns SK-MEL-28.
For assay [9], the system named is CAKI-1.
For assay [10], the system named is RXF 393.
In assay [11] the test system is A549.
The subject of assay [12] is KM12.
The subject of assay [13] is OVCAR-3.
Assay [14] relates to MOLT-4.
Assay [15] has as its system M14.
In assay [16] the test system is T47D.
Assay [17] concerns LOX IMVI.
Assay [18] relates to HL-60.

For orientation: GI50 means the concentration that inhibits growth by half.

The structures appear in SMILES notation.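 Growth conditions: 96-well plates. Treatment: test compound, 48 hours, 5 concentrations. Analysis: linear interpolation between bracketing concentrations; unreached endpoints set to highest concentration. GI50 marks 50% less growth.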 Active and inactive are the calls of the source. No stated cut-off is given here; in the data, active = GI50 up to about 1.1 µM and inactive = higher. Some results are limits rather than exact numbers.

For the compound `S=C(Nc1c2c(nc3ccccc13)CCCC2)Nc1c2c(nc3ccccc13)CCCC2`, the GI50 in [1], in assay [2], in assay [3], in [4], in assay [5] and in [6] was > 100 µM (inactive) in each case. For the same compound, the GI50 in assay [7], in [8], in [9], in assay [10], in assay [11] and in assay [12] was > 100 µM (inactive) each time. Also, the GI50 in [13], in assay [14], in assay [15] and in [16] was > 100 µM (inactive) each time.
For `CCCCCCCCCCCCCCCCOC[C@H](COC(c1ccccc1)(c1ccccc1)c1ccccc1)O[PH](=S)OC` (stereo partly drawn), the GI50 in assay [1], in assay [2], in assay [3], in assay [4], in assay [5] and in assay [9] was > 100 µM (inactive) throughout. Besides, the GI50 in [10], in [17], in [11], in assay [12], in [13] and in assay [14] was > 100 µM (inactive) throughout. Moreover, the GI50 in [15], in [18] and in [16] was > 100 µM (inactive) throughout.
`COc1cc(/C=C2\N=C(c3ccccc3)N(c3nc4c(Cl)cc(Cl)cc4s3)C2=O)ccc1O`: the GI50 in assay [1] is 11.1 µM (inactive); in assay [2], 27.7 µM (inactive); in assay [3], 25.8 µM (inactive); in assay [4] it was 43.4 µM (inactive); in [6] it was 32 µM (inactive); in assay [8] it was 52 µM (inactive). Moreover, the GI50 is 46.3 µM (inactive) in assay [9]; 20.9 µM (inactive) in [10]; 20.5 µM (inactive) in assay [17]; 30.8 µM (inactive) in [11]; 25.4 µM (inactive) in assay [12]; 24.2 µM (inactive) in [13]. Moreover, the GI50 in assay [14] is 0.059 µM (active); in [15], 40.5 µM (inactive); in assay [18], 16.3 µM (inactive); in [16], 24.8 µM (inactive).
For the compound `COC(=O)c1cnc(Cl)c([N+](=O)[O-])c1`, the GI50 was 1.9 µM (inactive) in assay [1]; 14.3 µM (inactive) in assay [2]; 12.6 µM (inactive) in assay [3]; 3.54 µM (inactive) in [4]; 16.9 µM (inactive) in assay [5]; 19.1 µM (inactive) in assay [6]. Further, the GI50 in assay [8] is 17.1 µM (inactive); in assay [9] it was 11.2 µM (inactive); in [10] it was 12 µM (inactive); in assay [17] it was 1.93 µM (inactive); in assay [11], 20.6 µM (inactive); in assay [12], 17.4 µM (inactive). Also, the GI50 was 14.8 µM (inactive) in assay [13]; 2.42 µM (inactive) in assay [14]; 14 µM (inactive) in assay [15]; 2.42 µM (inactive) in assay [18]; 2.09 µM (inactive) in [16].
Regarding `CCOc1ccc(/C=N/[N+](C)(C)C)cc1OCC`, the GI50 in [1], in assay [2], in [3], in assay [4], in assay [6] and in assay [7] was > 10 µM (inactive) throughout. Moreover, the GI50 in [8], in assay [9], in [17], in assay [11], in assay [12] and in [13] was > 10 µM (inactive) each time. Besides, the GI50 in assay [14], in assay [15] and in [16] was > 10 µM (inactive) throughout.
In the case of `C=C=C(CC(CC(=C)Br)(C(=O)OC)C(=O)OC)S(=O)(=O)c1ccccc1`, the GI50 in assay [2] is 1.62 µM (inactive); in assay [3], 2.39 µM (inactive); in assay [4] it was 1.84 µM (inactive); in assay [5] it was 6.12 µM (inactive); in assay [6], 5.21 µM (inactive); in [7], 1.91 µM (inactive). Also, the GI50 in assay [8] was 1.76 µM (inactive); in [9] it was 1.41 µM (inactive); in assay [10], 1.83 µM (inactive); in assay [17], 0.419 µM (active); in assay [11], 2.78 µM (inactive); in assay [12], 2.29 µM (inactive). Further, the GI50 in assay [13] was 2.27 µM (inactive); in assay [14], 1.91 µM (inactive); in assay [15] it was 1.96 µM (inactive); in [18], 0.494 µM (active); in assay [16], 3.77 µM (inactive).
For `Cc1cccc(C)c1NC(=O)C(=O)C(c1ccccc1Cl)S(=O)(=O)Cc1ccccc1Cl` (stereo not drawn), the GI50 is > 100 µM (inactive) in assay [1]; > 100 µM (inactive) in assay [2]; 53.3 µM (inactive) in [3]; > 100 µM (inactive) in assay [4]; > 100 µM (inactive) in assay [5]; 18 µM (inactive) in assay [6]. Also, the GI50 in assay [8] was > 100 µM (inactive); in assay [9], 39.3 µM (inactive); in [10], 29.8 µM (inactive); in assay [17], > 100 µM (inactive); in [11] it was > 100 µM (inactive); in [12] it was > 100 µM (inactive). In addition, the GI50 was > 100 µM (inactive) in assay [13]; > 100 µM (inactive) in assay [14]; > 100 µM (inactive) in [15]; 0.236 µM (active) in [18]; > 100 µM (inactive) in [16].
As to `COc1ccccc1/N=N/C(=N\NC(=O)c1ccc(C)cc1)c1ccc(N(CCC#N)CCC#N)cc1C`, the GI50 in assay [1] is 29.3 µM (inactive); in [2], 39.7 µM (inactive); in assay [3], 89.1 µM (inactive); in [4] it was 15.7 µM (inactive); in assay [5], 2.19 µM (inactive); in [6], 50.9 µM (inactive). Besides, the GI50 in assay [7] was 25.4 µM (inactive); in assay [8], > 100 µM (inactive); in [9], > 100 µM (inactive); in assay [10], 25.5 µM (inactive); in assay [17], 40.9 µM (inactive); in assay [11], 40.9 µM (inactive). In addition, the GI50 in [12] was 41.6 µM (inactive); in [13], 18.7 µM (inactive); in [14], 35.2 µM (inactive); in assay [15] it was 38.2 µM (inactive); in [16], 20.8 µM (inactive).
Consider `C=CCN1C(=O)N/C(=C\c2ccc(Cl)cc2)C1=O`, for which the GI50 in assay [2], in assay [3], in [4], in [5], in assay [6] and in [7] was > 100 µM (inactive) in each case. For the same compound, the GI50 in assay [8] was > 100 µM (inactive); in [9], > 100 µM (inactive); in assay [10], > 100 µM (inactive); in assay [17], > 100 µM (inactive); in assay [11], 83.9 µM (inactive); in assay [12], > 100 µM (inactive). The GI50 in assay [13], in [14], in assay [15], in assay [18] and in assay [16] was > 100 µM (inactive) each time.
For the compound `COC1CC(n2ccc(=O)[nH]c2=O)OC1CO` (stereo not drawn), the GI50 in assay [1], in assay [2], in [3], in assay [4], in [5] and in assay [6] was > 100 µM (inactive) in each case. Further, the GI50 in [7], in assay [8], in [9], in assay [10], in assay [17] and in assay [11] was > 100 µM (inactive) throughout. Further, the GI50 in assay [12], in assay [13], in assay [14], in assay [15] and in assay [16] was > 100 µM (inactive) throughout.
Consider `C1=CCC[C@@H]2CN3CCCC/C=C\CCCC[C@H]4C[C@H](CN(CCCCCCCC1)C4)[C@H]2CC3`, for which the GI50 was 9.25 µM (inactive) in assay [1]; 10.9 µM (inactive) in assay [2]; 9.68 µM (inactive) in assay [3]; 8.28 µM (inactive) in assay [4]; > 50 µM (inactive) in [5]; 8.45 µM (inactive) in assay [6]. The GI50 in [7] was 9.33 µM (inactive); in assay [8], 7.93 µM (inactive); in assay [9], 9.23 µM (inactive); in assay [17], 8.59 µM (inactive); in assay [11] it was 9.2 µM (inactive); in [12] it was 7.91 µM (inactive). In addition, the GI50 was 8.07 µM (inactive) in assay [13]; 9.79 µM (inactive) in assay [14]; 8.97 µM (inactive) in assay [15]; 12 µM (inactive) in [18]; 12.7 µM (inactive) in assay [16].
With `CCCCC(Sc1cc(Cl)c(C)cc1S(=O)(=O)Nc1nc(N)n[nH]1)C(=O)OC` (stereo not drawn), the GI50 in assay [2], in assay [3], in assay [4], in [5], in assay [6] and in [7] was > 10 µM (inactive) in each case. Also, the GI50 in assay [8], in [9], in assay [10], in assay [17], in assay [11] and in assay [12] was > 10 µM (inactive) in each case. For the same compound, the GI50 in [13], in [14], in assay [15], in [18] and in [16] was > 10 µM (inactive) each time.

The values above are taken from ChEMBL document CHEMBL1201862, “PubChem BioAssay data set” (2004).
